Source: US6600012B1, “Lipid-modified muc-1 derivatives” (Biomira, Inc., priority 1997, dated 2003)
One block for each substance: values may come before it.

Legend:
[1] = target: T1, HLA.A2 on T2 mutant cells (Homo sapiens, UniProt P04439, D140Y/D185E/D98H/E176V/E277Q/G131W/G231S/I119V/I121R/I166T/I218V/L300P/L318F/N151K/N90K/P208A/P217A/Q86G/Q94H/R138H/R169H/T345S); experiment: MUC-1 peptide-mediated upregulation of HLA.A2 expression on T2 cells, Example 1; format: cell-based; conditions: FIG. 6A
Excerpt: FIG. 6A: Upregulation of HLA.A2 expression on T2 mutant cells by MUC-1 peptides […] (SEQ ID NO: 1) and […] (SEQ ID NO: 2). […] was used as a positive control (SEQ ID NO: 1) and H-2Kb (61-69) peptide (SEQ ID NO: 3) was used as negative control for HLA-A2 upregulation. The x-axis represents fluorescence intensity and the y-axis represents the cell number. Markers M1 and M2 were set to visually examine the increase expression of HLA.A2. Mean channel intensity (MCI) is shown in each histogram.
Cytotoxic T lymphocyte assays. For the CTL assay, three (HLA.A2^+) normal donors' PBLs were used. The T-cells were grown for two weeks in bulk cultures as described above. At the end of two weeks, live T-cells were harvested from flasks and counted. The targets were mutant T2 cells. Houbiers et al., Eur. J. Immunol 23:2072-2077 (1993); Stauss et al., Proc. Natl. Acad. Sci. U.S.A. 89:7871-7875 (1992). The MUC-1 peptide-mediated upregulation of HLA.A2 expression on T2 cells was examined using the MUC-1 nine-mer peptides (SEQ ID NO: 25) […] and […] using known methods. Townsend et al., Nature 346:476 (1989). […] Percent specific killing was calculated as: experimental release—spontaneous release/maximum release—spontaneous release×100. […] Each group was set up in four replicate and mean percent specific killing was calculated.

[2] = target: T1, HLA.A2 on T2 mutant cells; experiment: T2 feeding experiment and FACS analysis (HLA.A2 upregulation, MA2.1 staining), Example 2; format: cell-based
[3] = tested on: T2 cells loaded with MUC-1 synthetic peptides; experiment: Cytotoxic T lymphocyte assay (51Cr release) against peptide loaded T2 targets, Example 2; format: cell-based, human; conditions: T-cells of three HLA.A2+ donors primed with liposomal 25 aa MUC-1 lipopeptide, 5 h 51Cr release, peptide 200 μM
Experimental: Cytotoxic T lymphocyte assays. For the CTL assay, three (HLA.A2^+) normal donors' PBLs were used. The T-cells were grown for two weeks in bulk cultures as described above. At the end of two weeks, live T-cells were harvested from flasks and counted. T2 cells used as CTL targets were loaded overnight with various MUC-1 synthetic peptides at 200 μM in presence of exogenous β2m. Houbiers et al., Eur. J. Immunol 23:2072-2077 (1993); Stauss et al., Proc. Natl. Acad. Sci. U.S.A. 89:7871-7875 (1992). These peptide loaded T2 target cells were then loaded with ^51Cr (using NaCrO4) for 90 min and washed extensively. CTL assays were performed as previously described. Agrawal et al., supra. Percent specific killing was calculated as: experimental release—spontaneous release/maximum release—spontaneous release×100. The effector versus target ratio was used as (1, 10, 50, 100 and 150). Each group was set up in four replicate and mean percent specific killing was calculated. As negative control OVA peptide […] loaded target T2 cells were used in the cytotoxic assay and percent specific killing of […] loaded targets was subtracted from each data point to obtain MUC-1 peptide specific percent specific killing.
We performed in vitro CTL assays in order to determine whether the MUC-1 peptides shown to be capable of binding to HLA.A2 on T2 mutant cells can be recognized as CTL epitopes in the context of MHC class I HLA.A2 molecules on target cells. T-cells from PBLs of three HLA.A2^+ donors were primed in vitro against MUC-1 antigen using a lipopeptide derivative of 25 amino acid MUC-1 peptide encapsulated in liposome pulsed autologous PBLs as APCs. The stimulated T-cells were harvested following two weeks in vitro culture (with 2 weekly restimulations) and tested for their cytotoxic activity against MUC-1 derived synthetic peptide (9 mers and 7 mer) loaded T2 cells as target in a 5 h ^51Cr release assay (FIG. 6). […] The targets loaded with 7 mer TSA . . . peptide were weakly killed by donor 2 at higher E/T ratios.

[4] = tested on: T-cells from PBLs of normal donors; experiment: T-cell proliferation assay (3H-Tdr incorporation) of T-cells stimulated twice with liposomal antigen loaded autologous APCs; format: cell-based, human; conditions: T-cells stimulated twice in two weeks with BLP-25 liposome loaded autologous PBLs; antigen presented on autologous APCs
Experimental: T-cell Culture in Bulk For T-cell enrichment, 30-50×10^6 PBLs were suspended in 1 mL AIM-V media and loaded on media pre-conditioned 5 mL nylon wool columns (Robins Scientific, Sunnyvale, Calif.). The loaded nylon wool columns were incubated at 37° C. for 45 minutes and then the non-adhering T-cells were eluted by washing with warm (37° C.) AIM-V media. Initially, the bulk culture was started in a 25 cm^2 tissue culture sterile flask (Corning Glass, Corning, N.Y.). 10^7 T-cells were cultured in the presence of 10^7 antigen loaded, gamma-irradiated autologous PBLs in a total volume of 10 mL in AIM-V media for 16-24 hours, at which time the culture was fed with human rIL-7 (10 μg/mL) and human rIL-12 (100 pg/ml), and left for 6-8 more days. At the end of the 7-10 days of culture, surviving t-cells were collected and re-stimulated with autologous APCs loaded with liposomal antigen. After two consecutive cycles of re-stimulation (14-16 days), the T-cells were collected, and counted. The supernatant was collected from bulk cultures at 14 days for cytokine screening and kept frozen at −80° C. until used for the assay. Repeated freeze/thaw was prevented. […] Incorporation of ^3H-Tdr into DNA of proliferating cells was measured after harvesting the plates and counting in the matrix beta counter. […]

[5] = tested on: T cells stimulated with autologous PBLs loaded with liposomes containing BLP-25; experiment: Cytokine ELISA of supernatant of microtiter wells in the proliferation assay; format: cell-based, human; conditions: soluble peptide, 100 ug; T cells pre-stimulated with BLP-25 liposomes 100 ug; 6th day of culture
Experimental: T-Cell Proliferation Assay T-cells (5×10^4-1×10^5) obtained at the end of 14-16 days of culture, as described above, were incubated in the presence of various antigen-containing liposomes, soluble BP24, soluble BLP-24M, loaded or unloaded autologous liposomes, and mitomycin C treated APCs (5×10^4-10^5), in a total volume of 200 μL in AIM-V medium, in 96-well flat-bottom tissue culture plates—for a period of 5 days at 37° C., 7% CO2 and moisture. Each group was cultured in 5 replicate wells. At the end of 5 days, 100 μL of culture supernatant was collected from each well and tested for the presence of γ-IFN or IL-4 by ELISA, as described below. After collecting the supernatant for cytokines, 1 μCi^3H-Tdr (Amersham Canada Limited, Oaksville, Ontario) was added into each well and incubated overnight. Incorporation of ^3H-Tdr into DNA of proliferating cells was measured after harvesting the plates and counting in the matrix beta counter. […]
For the γ-IFN assay, 96-well Nunc ELISA plates were coated overnight at 4° C. with mouse anti-human γ-IFN monoclonal antibody (Genzyme, Cambridge, Mass.) in NaHCO3 buffer (0.1 M, pH 9.5). […] At this time, the plates were read in the ELISA reader (Molecular Devices Corporation, Menlo Park, Calif.) in kinetic mode [Molecular Thermomax dual wavelength (405-490 nm)]. […]

[6] = tested on: MAb BCP8; experiment: Competitive inhibition of binding of MAb BCP8 to class I MHC isolated MUC-1 peptides (ELISA); conditions: synthetic peptide 0-10 μM; MCF-7 derived fraction (FIG. 9)
Experimental: Competitive inhibition of binding of MAb BCP8 to class I MHC isolated putative MUC-1 peptide motifs by synthetic MUC-1 peptides. To show the specificity of binding of the BCP8 antibody to the peptides isolated from MCF-7, a fraction eluting at 19 min after secondary HPLC was diluted ⅙ with PBS and coated on microtiter wells overnight, then blocked as described above. The wells were incubated with 2 ng of BCP8 in 100 μl ELISA diluent, containing also amounts of peptide varying from 0-10 μM. Peptides used in this experiment were the 9 mers (SEQ ID NO: 3), […] and […] (SEQ ID NO: 17), and the 16 mer (SEQ ID NO: 15) […]. The ELISA was then processed as described above.

upregulation of HLA.A2 expression on T2 cells [1]: strongly upregulates HLA.A2 expression
Substance: SIINFEKL [8-mer ovalbumin (OVA) peptide, negative control in CTL assay, reference compound]

Substance: TSAPDTRPA [MUC-1 tandem repeat 9 mer]
upregulation of class I expression on T2 cells ([2]; FIG. 11 and repeat experiments): strong upregulation of class I expression | specific killing of T2 targets loaded with the peptide [3]: performed exceptionally well | specific killing of T2 targets loaded with the peptide ([3]; listed as 9 mers TSA . . .): specifically killed to the highest degree

Substance: DSTSSPVHSGTSSPATSAPEDSTS [BP-24M, mouse MUC-1, 24-amino acid peptide, control]
T-cell proliferative response against the test antigen [4]: no proliferative T-cell response | IFN-γ (pg/ml) ± S.D. [5]: 193 ± 79 pg/mL | IL-4 (pg/ml) ± S.D. [5]: <31.00 pg/mL

inhibition of binding of BCP8 to the isolated MUC-1 peptides [6]: did not inhibit binding
Substance: GVTSAPDTR [MUC-1 tandem repeat 9 mer]

δMCI, HLA.A2 expression on T2 cell surface ([2]; peptide in excess at 50 μM/well): 2
Substance: TSAPDTR [MUC-1 7 mer, class I-associated peptide]
specific killing of T2 targets loaded with the peptide [3]: weakly killed

Substance: STAPPAHGV
upregulation of HLA.A2 expression on T2 cells [1]: higher upregulation of HLA.A2 expression on T2 cells than did

% Change in mean channel intensity ([2]; T2 cell assay, HLA.A2 expression (MA2.1 staining)): 48%
Substance: SAPDTRPAP [MUC-1 tandem repeat 9 mer]
specific killing of T2 targets loaded with the peptide [3]: specifically killed to the highest degree
